Assay results reported in patent publication US8410161B2, “Thioxanthone ring system derivatives” (National Defense Medical Center, priority 2010, dated 2013).

Key:
Assay type in all cases: cell-based
A control cell lines = experiment: MTT assay, A control cell lines (lung cancer cell)
Source text: Please refer to Table 1 and FIGS. 4A-4C. According to a MTT assay (Table 1), various cell viabilities of the A control cell lines can be obtained and illustrated in FIG. 4A while the compounds No. 2˜30 are used to treat A control cell lines, wherein A control cell lines are lung cancer cell.

A3 cell lines = experiment: MTT assay, A3 cell lines (lung cancer stem cell)
Source text: Please to FIG. 4B, various cell viabilities of the A3 cell lines can be obtained through the MTT assay and illustrated in FIG. 4B while the compounds No. 1˜30 are used to treat A3 cell lines, wherein A3 cell lines are lung cancer stem cell.

[1] = MTT assay, HEL299 fibroblast; settings: human
Source text: Please refer to FIG. 4C, various cell viabilities of the HEL299 cell lines can be obtained through the MTT assay while the compounds No. 1˜30 are used to treat HEL299 cell lines, wherein HEL299 cell lines are fibroblast.

HL-60(TB) = experiment: NCI in vitro DTP human cell line screen, HL-60(TB); settings: Leukemia, 1.00E−5 Molar
Description: (§1) Then, a cell toxicity assay of the cancer lines made by National Cancer Institute will be discussed as follows. The cell toxicity assay is performed by choosing ten compounds (existing certification numbers) from the 59 compounds disclosed in the present invention first.

K562 = experiment: NCI in vitro DTP human cell line screen, K562; settings: Leukemia, 1.00E−5 Molar
Description: as §1

MOLT-4 = experiment: NCI in vitro DTP human cell line screen, MOLT-4; settings: Leukemia, 1.00E−5 Molar
Description: as §1

RPMI-8226 = experiment: NCI in vitro DTP human cell line screen, RPMI-8226; settings: Leukemia, 1.00E−5 Molar
Description: as §1

SR = experiment: NCI in vitro DTP human cell line screen, SR; settings: Leukemia, 1.00E−5 Molar
Description: as §1

EKVX = experiment: NCI in vitro DTP human cell line screen, EKVX; settings: Non-Small Cell Lung Cancer, 1.00E−5 Molar
Description: as §1

NCI-H226 = experiment: NCI in vitro DTP human cell line screen, NCI-H226; settings: Non-Small Cell Lung Cancer, 1.00E−5 Molar
Description: as §1

NCI-H23 = experiment: NCI in vitro DTP human cell line screen, NCI-H23; settings: Non-Small Cell Lung Cancer, 1.00E−5 Molar
Description: as §1

NCI-H322M = experiment: NCI in vitro DTP human cell line screen, NCI-H322M; settings: Non-Small Cell Lung Cancer, 1.00E−5 Molar
Description: as §1

NCI-H460 = experiment: NCI in vitro DTP human cell line screen, NCI-H460; settings: Non-Small Cell Lung Cancer, 1.00E−5 Molar
Description: as §1

NCI-H522 = experiment: NCI in vitro DTP human cell line screen, NCI-H522; settings: Non-Small Cell Lung Cancer, 1.00E−5 Molar
Description: as §1

COLO 205 = experiment: NCI in vitro DTP human cell line screen, COLO 205; settings: Colon Cancer, 1.00E−5 Molar
Description: as §1

HCC-2998 = experiment: NCI in vitro DTP human cell line screen, HCC-2998; settings: Colon Cancer, 1.00E−5 Molar
Description: as §1

HCT-116 = experiment: NCI in vitro DTP human cell line screen, HCT-116; settings: Colon Cancer, 1.00E−5 Molar
Description: as §1

HCT-15 = experiment: NCI in vitro DTP human cell line screen, HCT-15; settings: Colon Cancer, 1.00E−5 Molar
Description: as §1

HT29 = experiment: NCI in vitro DTP human cell line screen, HT29; settings: Colon Cancer, 1.00E−5 Molar
Description: as §1

KM12 = experiment: NCI in vitro DTP human cell line screen, KM12; settings: Colon Cancer, 1.00E−5 Molar
Description: as §1

SW-620 = experiment: NCI in vitro DTP human cell line screen, SW-620; settings: Colon Cancer, 1.00E−5 Molar
Description: as §1

SF-268 = experiment: NCI in vitro DTP human cell line screen, SF-268; settings: CNS Cancer, 1.00E−5 Molar
Description: as §1

SF-295 = experiment: NCI in vitro DTP human cell line screen, SF-295; settings: CNS Cancer, 1.00E−5 Molar
Description: as §1

SF-539 = experiment: NCI in vitro DTP human cell line screen, SF-539; settings: CNS Cancer, 1.00E−5 Molar
Description: as §1

SNB-75 = experiment: NCI in vitro DTP human cell line screen, SNB-75; settings: CNS Cancer, 1.00E−5 Molar
Description: as §1

U251 = experiment: NCI in vitro DTP human cell line screen, U251; settings: CNS Cancer, 1.00E−5 Molar
Description: as §1

LOX IMVI = experiment: NCI in vitro DTP human cell line screen, LOX IMVI; settings: Melanoma, 1.00E−5 Molar
Description: as §1

COc1cccc(Sc2ccc3c(=O)c4ccccc4sc3c2Cl)c1 [No. 16, 4-Chloro-3-(3-methoxylphenylthio)-9H-thioxanthen-9-one]
cell viabilities of A control cell lines (MTT assay) (A control cell lines): 91.8 ± 3.07% | cell viabilities of A3 cell lines (MTT assay) (A3 cell lines): 90.0 ± 1.24% | viability [1]: 90.6 ± 11.5% | Growth Percent (HL-60(TB)): 115.43% | Growth Percent (K562): 97.79% | Growth Percent (MOLT-4): 111.47% | Growth Percent (RPMI-8226): 99.57% | Growth Percent (SR): 99.21% | Growth Percent (EKVX): 96.56% | Growth Percent (NCI-H226): 95.11% | Growth Percent (NCI-H23): 92.69% | Growth Percent (NCI-H322M): 118.28% | Growth Percent (NCI-H460): 108.81% | Growth Percent (NCI-H522): 86.09% | Growth Percent (COLO 205): 113.53% | Growth Percent (HCC-2998): 103.45% | Growth Percent (HCT-116): 101.88% | Growth Percent (HCT-15): 94.87% | Growth Percent (HT29): 91.02% | Growth Percent (KM12): 114.13% | Growth Percent (SW-620): 106.14% | Growth Percent (SF-268): 104.10% | Growth Percent (SF-295): 108.18% | Growth Percent (SF-539): 100.06% | Growth Percent (SNB-75): 86.86% | Growth Percent (U251): 93.76% | Growth Percent (LOX IMVI): 93.53%
